Experimental data taken from patent EP4755886A1 (Chengdu Chipscreen Pharmaceutical Ltd., priority 2023, dated 2025).

Assays:
hERG = target: T1, hERG (Homo sapiens, UniProt Q12809); test: hERG test (Predictor hERG Fluorescence Polarization Assay Kit); type: binding; settings: for inhibition at 3.5 h, 10 µM: 10 µM test substance, three duplicate wells; for IC50: only 10 µM tested
T1 construct: purchased ThermoFisher Scientific PV5365
How it was run: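 Fluorescence polarization tracer displacement using hERG membranes and Tracer Red, test compound at 10 µM final, E-4031 as positive control, triplicate wells. Incubated 3.5 h at 25 °C in the dark; mP read (G factor 2.14) and percent inhibition calculated.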

MTAP^-/- HCT-116 cells = test: Cell proliferation (MTS), MTAP-/- HCT-116; type: cell-based, human; settings: for IC50: Homo sapiens, 240 h, MTAP-/- HCT-116, 10 days with compound, MTS reading, read-out: IC50 HCT116 MTAP-/-; for Selectivity: HCT116 WT IC50 relative to HCT116 MTAP-/- IC50
How it was run: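 MTAP-/- (CRISPR/Cas9 biallelic knockout) or wild-type HCT-116 cells seeded at 100 cells/well, treated next day with 8-point 3-fold dilutions (top 20 µM) for 10 days at 37 °C, 5% CO2. Viability read by MTS; IC50 from four-parameter logistic fit of inhibition rate vs log concentration.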

wild-type HCT-116 cells = test: Cell proliferation (MTS), wild-type HCT-116; type: cell-based; settings: Homo sapiens, 240 h; wild-type HCT-116, 10 days with compound, MTS reading; read-out: IC50 HCT116 WT
How it was run: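 Wild-type HCT-116 cells were seeded at 100 cells/well in McCoy's 5A/10% FBS. From day 1 they were treated with compound in 3-fold dilutions (initial 20 µM, 8 points) for 10 days at 37° C. Proliferation was read by MTS on day 11, and IC50 was obtained from a four-parameter logistic fit.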

[1] = human, probe Predictor hERG Tracer Red

T1 sequence (Q12809 whole entry): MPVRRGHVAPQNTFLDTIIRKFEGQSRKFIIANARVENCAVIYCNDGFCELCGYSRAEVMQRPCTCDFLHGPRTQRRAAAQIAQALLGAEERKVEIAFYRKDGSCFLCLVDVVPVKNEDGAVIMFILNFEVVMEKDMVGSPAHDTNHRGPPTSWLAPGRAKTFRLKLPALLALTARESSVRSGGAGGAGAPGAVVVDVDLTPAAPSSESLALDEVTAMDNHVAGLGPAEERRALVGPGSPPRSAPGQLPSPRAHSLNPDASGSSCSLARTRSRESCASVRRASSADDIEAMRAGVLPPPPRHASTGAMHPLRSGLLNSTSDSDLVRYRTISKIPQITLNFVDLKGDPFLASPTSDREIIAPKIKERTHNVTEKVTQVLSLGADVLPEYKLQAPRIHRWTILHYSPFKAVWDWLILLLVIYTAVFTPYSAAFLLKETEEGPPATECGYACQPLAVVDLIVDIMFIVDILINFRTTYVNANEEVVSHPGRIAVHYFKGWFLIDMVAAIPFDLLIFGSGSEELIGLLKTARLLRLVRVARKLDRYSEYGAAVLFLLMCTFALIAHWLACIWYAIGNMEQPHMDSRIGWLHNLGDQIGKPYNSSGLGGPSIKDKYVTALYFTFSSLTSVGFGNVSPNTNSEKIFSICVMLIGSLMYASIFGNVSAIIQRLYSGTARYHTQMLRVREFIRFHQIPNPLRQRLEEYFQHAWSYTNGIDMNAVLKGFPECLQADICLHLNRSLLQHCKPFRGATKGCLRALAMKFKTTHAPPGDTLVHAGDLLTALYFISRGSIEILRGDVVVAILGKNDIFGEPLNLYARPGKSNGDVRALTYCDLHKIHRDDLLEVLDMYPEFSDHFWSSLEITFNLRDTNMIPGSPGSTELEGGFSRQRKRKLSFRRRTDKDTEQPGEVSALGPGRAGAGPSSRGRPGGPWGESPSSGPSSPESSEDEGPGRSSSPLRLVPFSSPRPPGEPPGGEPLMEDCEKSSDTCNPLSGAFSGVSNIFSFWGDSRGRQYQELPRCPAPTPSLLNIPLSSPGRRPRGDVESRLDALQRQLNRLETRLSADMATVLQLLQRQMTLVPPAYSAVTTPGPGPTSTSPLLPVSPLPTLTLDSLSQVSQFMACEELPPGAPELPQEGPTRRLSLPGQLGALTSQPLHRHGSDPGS

SMILES	inhibition at 3.5 h, 10 µM (hERG; herg membrane fluorescence polarization) [%]	IC50 (hERG) [nM]	IC50 (MTAP^-/- HCT-116 cells) [nM]	IC50 (wild-type HCT-116 cells) [nM]	inhibition at 3.5 h, 10 µM (hERG; [1]) [%]	Selectivity (MTAP^-/- HCT-116 cells)
CN(C(=O)c1cc2c(cc1F)nc(N)c1cnn(C)c12)[C@@H]1COc2cc(C#Cc3cnn(C)c3)ccc21 [Compound 5A, (S)-4-amino-7-fluoro-N,1-dimethyl-N-(6-((1-methyl-1H-pyrazol-4-yl)ethynyl)-2,3-dihydrobenzofuran-3-yl)-1H-pyrazolo[4,3-c]quinoline-8-carboxamide]	27.7	> 10000	1.7	170		
CN(C(=O)c1cc2c3c(c(N)nc2cc1Cl)COC3)[C@@H]1COc2cc(C#Cc3cnn(C4CC4)c3)ccc21 [Compound 43A, (S)-4-amino-7-chloro-N-(6-((1-cyclopropyl-1H-pyrazol-4-yl)ethynyl)-2,3-dihydrobenzofuran-3-yl)-N-methyl-1,3-dihydrofuro[3,4-c]quinoline-8-carboxamide]		> 10000	3.8	646	30.3 ± 29.9	170
Cc1nn(C)cc1C#Cc1ccc2c(c1)OC[C@H]2N(C)C(=O)c1cc2c3c(c(N)nc2cc1Cl)COC3 [Compound 50A, (S)-4-amino-7-chloro-N-(6-((1,3-dimethyl-1H-pyrazol-4-yl)ethynyl)-2,3-dihydrobenzofuran-3-yl)-N-methyl-1,3-dihydrofuro[3,4-c]quinoline-8-carboxamide]		> 10000	2.4	431	22.4	180
